Patent US20080300299A1, “Application of Eriocalyxin B in the Manufacture of Medicaments For Treating Leukemia” (Rui Jin Hospital Affiliated to Shanghai Second Medical …, priority 2005, published 2008)
Values joined by “and” are separate entries in the source; they are usually repeats but may differ in a detail not shown here. Equal values may be shown once.

Columns and labels:
Kasumi-1 cells [1] = assay: Mitochondrial transmembrane potential (Rh123 flow cytometry); type: cell-based, human
Protocol: (§1) (IV) Flow cytometric for annexin-V, cell cycle, mitochondrial transmembrane potential and reactive oxygen species (ROS) generation: Cell apoptosis was analyzed using an ApoAlert Annexin V-FITC Apoptosis kit (BD). In the process of analyzing the cell cycle, the cells were fixed overnight in methanol at −20° C., followed by treatment of Tris-HCl buffer (pH 7.4) comprising 1% RNase, 50 μg/ml PI staining. In the detection of mitochondrial transmembrane potential, the cells were washed with PBS, incubated at 37° C. and with […] Rh123 for 30 minutes, and then staining with 50 μg/ml PI. DCFH-DA was used to detect ROS levels, thus the cells were washed with PBS, and incubated at 37° C. and with […] DCFH-DA for 30 minutes. Fluorescence intensity was measured by flow cytometry.

Kasumi-1 cells [2] = assay: ROS level flow cytometry; type: cell-based, human
Protocol: as §1

Daudi cells = assay: MTT cell growth inhibition; type: cell-based, human; conditions: 72 hours
Text: (§2) (II) Cell culture, cell survival and cell morphology: the present invention utilized the following human cell lines: AML leukemia with t(8;21) chromosomal translocation Kasumi-1 cell lines, which is also known as acute myeloid leukemia comprising AML1-ETO fusion gene; acute promyelocytic leukemia NB4, NB4/R1 and NB4/R2 cell lines, and acute myeloid leukemia U937 cell lines; Burkitt's lymphoma (Raji and Daudi) cell lines; T-cell acute lymphoblastic leukemia (Jurkat) cell lines. The present invention studied by collecting primary leukemia cells from five AML patients with t(8;21). The diagnoses of patients were established on the bases of morphological examination, cytogenetics study detection of t(8;21) chromosomal translocation, and RT-PCR detection of AML1-ETO fusion protein. Leukemia cells were prepared in the following conditions: separated with Lymphocyte Separation Medium, further isolated and cultured in RPMI-1640 medium (Gibco/BRL), in addition, added 10% FBS (PAA) in 5% CO2-95% air and saturated humidity, and at 37° C. In each experiment, cell inoculation density is 2×10^5/ml. The survival rate of cells was accessed using trypan blue dye-exclusion experiments. Cell observations were done by using the Wright's staining method.
(§3) (III) MTT experiment: cells were treated with EriB at concentrations of 0.1, 0.25, 0.5, 1, 2, 4, 6, 8 and 10 μM in a 96-hole plate. After 72 hours, 0.1 mg MTT was added to each hole, incubated at 37° C. for four hours later, absorbance values were measured at 570 nm by spectrophotometer.

Jurkat cells = assay: MTT cell growth inhibition; type: cell-based, human; conditions: 72 hours
Text: as §2, §3

NB4 cells = assay: MTT cell growth inhibition; type: cell-based, human; conditions: 72 hours
Text: as §2, §3

NB4/R1 cells = assay: MTT cell growth inhibition; type: cell-based, human; conditions: 72 hours
Text: as §2, §3

NB4/R2 cells = assay: MTT cell growth inhibition; type: cell-based, human; conditions: 72 hours
Text: as §2, §3

Raji cells = assay: MTT cell growth inhibition; type: cell-based, human; conditions: 72 hours
Text: as §2, §3

U937 cells = assay: MTT cell growth inhibition; type: cell-based, human; conditions: 72 hours
Text: as §2, §3

HL60 cells = assay: MTT cell growth inhibition; type: cell-based, human; conditions: 72 hours
Protocol: as §3

[3] = test system: human malignant hematopoietic cell; assay: MTT cell growth inhibition, whole panel; type: cell-based; conditions: all cell lines tested
Text: as §2, with “The survival rate of cells was accessed using trypan blue dye-exclusion experiments. Cell observations were done by using the Wright's staining method.” left out
as §3

Kasumi-1 cells [4] = assay: Cell survival (trypan blue dye-exclusion); type: cell-based, human; conditions: 48 hours
Text: as §2

Kasumi-1 cells [5] = assay: Annexin V-FITC/PI apoptosis flow cytometry; type: cell-based, human; conditions: 0.5 μM EriB
Protocol: as §1

Kasumi-1 cells [6] = assay: Cell cycle analysis (nuclear DNA content, PI); type: cell-based, human; conditions: 0.25 μM EriB for 6, 12, 24 and 48 hours
Protocol: as §1

Kasumi-1 cells [7] = assay: Differentiation associated antigen expression; type: cell-based, human; conditions: 0.1 and 0.25 μM EriB for seven days
Bcl-2 = assay: Western blot and RT-PCR of Bcl-2 in Kasumi-1 cells; type: cell-based, human; conditions: EriB 24 and 48 hours
Protocol: (§4) (VII) Western Blot analysis: lysing 5×10^6 cells with 200 μl Laemmli lysis buffer (0.5M Tris-HCl, pH 6.8, 2 mM EDTA, 10% glycerol, 2% SDS and 5% β-mercaptoethanol). Protein lysate (20 μg) was used on 10% polyacrylamide gel electrophoresis, and then transferred to nitrocellulose membranes. Nitrocellulose membranes were blocked with TBS/0.05% Tween 20 5% skim (nonfat) milk, and afterwards, incubated with primary antibody for two hours at room temperature, and incubated with horseradish peroxidase labeled IgG for one hour. The Immunocomplexes were detected with chemiluminescence horseradish peroxidase detection kit. The signal intensities of the respective bands were analyzed with Quantity One version 4.1.1 software.
(§5) (IX) Semi-quantitative reverse transcription-PCR (RT-PCR): the total RNA was extracted using Trizol (Invitrogen). Random hexamers and Superscript II (Invitrogen) ART were used for reverse transcribed into cDNA. The present invention utilized the following primers: […]

Bcl-XL = assay: Western blot and RT-PCR of Bcl-XL in Kasumi-1 cells; type: cell-based, human; conditions: EriB 24 and 48 hours
Protocol: as §4, §5

Bax = assay: Western blot and RT-PCR of Bax in Kasumi-1 cells; type: cell-based, human; conditions: EriB 24 and 48 hours
Protocol: as §4, §5

NF-κB [8] = assay: NF-κB luciferase report assay in Kasumi-1 cells; type: cell-based, human; conditions: pre-treatment with EriB for one hour, then TNF-α four hours
Protocol: (§6) (X) Luciferase report assay: Kasumi-1 cells were resuspended in cultured medium, added the gene vector [10 μg, NF-κB-mediated luciferase reporter plasmid or pAP1-luc (Clontech), and 2 μg of β-galactosidase enzyme expression plasmid for correcting cell transfection efficiency of the CMV-mediated. Cell transfection conditions were: 1000V, 25 μF, and the instrument came from the Bio-Rad Laboratories, Inc. Transfections after 36 hours, the cells were treated with EriB and/or TNFα, and then the cells were lysed. Luciferase activity was measured by lumat LB 9507 tube luminometer (EG&G Berthold). Cell lysates were mixed with 2×β-half-galactosidase reaction reagents, after incubated for one hour at 37° C., the termination of reaction by adding 1 M Na2CO3. The β-galactosidase enzyme absorbance values were measured at 420 nm by spectrophotometer.

NF-κB [9] = assay: Gel electrophoresis shift assay (EMSA) of NF-κB DNA binding; type: cell-based, human; conditions: EriB added one hour before TNF-α
Protocol: (XI) Gel electrophoresis shift assay: nucleoprotein extracts of Kasumi-1 cells were quantitatively determined by using Coomassie plus reagent (Pierce). Nucleoprotein (10 μg) and ^32P marked double-stranded NF-κB (5′-[…]-3′) were sequentially incubated, and then […] using 4% of non-denaturing PAGE gel; the marked bands were detected by using autoradiography.

NF-κB (P65) = assay: Immunofluorescence of P65 nuclear translocation in Kasumi-1 cells; type: cell-based, human; conditions: pretreatment with EriB for one hour, 100 ng/ml TNF-α four hours
Protocol: (VI) Immunofluorescence: the cells were fixed in methanol for five minutes at −20° C., after being washed with PBS, treated by 0.5% Triton-X-permeability, blocked with 1% BSA, and incubated with anti-P65 antibody at room temperature for one hour; after being washed again with PBS and incubated with the fluorescent-label IgG at room temperature for 30 minutes. The cells were incubated with Hochest 33258 for five minutes later, and observations were proceeded under the fluorescent microscope.

AML1-ETO fusion protein = assay: Western blot of AML1-ETO (anti-ETO antibody) in Kasumi-1 cells; type: cell-based, human; conditions: EriB 24 and 48 hours
Protocol: as §4

caspase-3 = assay: Western blot of caspase-3 activation and PARP; type: cell-based, human; conditions: EriB; Kasumi-1, NB4 and NB4/R2 cells
ERK1/2 = assay: Western blot of phosphorylated ERK1/2 in Kasumi-1 cells; type: cell-based, human; conditions: EriB 12 and 24 hours
Protocol: as §4

AP-1 = AP-1 luciferase report assay in Kasumi-1 cells; type: cell-based, human; conditions: 0.5 μM EriB for 4 hours
Protocol: as §6

[10] = test system: primary leukemia cells from patients with t(8;21); assay: Growth inhibition of primary leukemia cells (trypan blue exclusion); type: cell-based, human; conditions: 0.1 and 0.25 μM EriB, all five patients
Text: as §2

[11] = test system: MigA/Etr cells expressing C-terminal truncated AML1-ETO; assay: C57 murine model of t(8;21) leukemia; type: in vivo, mice; conditions: for median survival time: control 25 days, P<0.001
Protocol: (XII) Leukemia murine model: female C57 mice and nude mice (5-6 weeks) were bred in special pathogen-free environment. C57 mice received 400 cGy from a high-energy linear accelerator at the dose rate of 100 cGy per minute. After 24 hours, the C57 mice were injected with 3×10^6 Mig/Etr cells expressing carbon-terminal truncated AML1-ETO of 0.2 ml PBS via tail vein intravenous injection. Treatments (12 mice in each group) were started five days after injection of leukemia cells. The control group and the EriB treated group, all respectively receive EriB (1.25, or 2.5 mg/kg, intraperitoneal injection for two weeks) and diluents (1% Pluronic F68).
EriB efficacy in the treatment of murine models. C57 mice were irradiated by lethal dose (LD)50 and injected via tail vein intravenously with 3×10^6 MigA/Etr cells expressing of C-terminal truncated AML1-ETO (day 0). Beginning on day 5, intraperitoneal injection of EriB ([…]) for two weeks. The overall survival rate was measured and calculated started from day 0 to the date of death. All the mice eventually develop symptoms of anemia and difficulty breathing, and also the occurrence of a large number of primitive blood cells in the peripheral blood.

Kasumi-1 cells [12] = assay: Kasumi-1 xenograft tumor model in nude mice; type: in vivo; conditions: EriB 2.5 mg/kg intraperitoneal, day 10 to day 19; P<0.05
Protocol: Another xenograft tumor model was established through subcutaneous injection in nude mice of 3×10^7 Kasumi-1 cells (day 0). The incubation period of tumor formation at the site of injection was about 8-12 days. Beginning from day 10, the mice were treated with EriB (2.5 mg/kg) by intraperitoneal injection only until day 19.

O[C@H](CS)[C@H](O)CS (racemic) [DTT, dithiothreitol, reference compound]
effect on EriB-induced apoptosis (Rh123) (Kasumi-1 cells [1]; 0.2 mM DTT with 0.5 μM EriB): completely inhibit | ROS level (Kasumi-1 cells [2]; 0.2 mM DTT and EriB jointly incubated): has not changed

C=C1C(=O)[C@]23C[C@H]1CC[C@H]2[C@@]12CO[C@]3(O)[C@@H](O)[C@@H]1C(C)(C)C=CC2=O [EriB, Eriocalyxin B]
IC50 (Daudi cells): > 1500 nM | IC50 (Jurkat cells): > 1500 nM | IC50 (NB4 cells): < 1000 nM and 500 nM | IC50 (NB4/R1 cells): < 1000 nM and 1000 nM | IC50 (NB4/R2 cells): < 1000 nM and 500 nM | IC50 (Raji cells): > 1500 nM | IC50 (U937 cells): 1000 nM | IC50 (HL60 cells): 1000 nM | concentration that inhibits the growth of the cells [3]: 0.2 to 2 µM | cell death (Kasumi-1 cells [4]; 0.25 μM EriB): 42.7±6.5% | cell death (Kasumi-1 cells [4]; 0.75 μM EriB): 90.5±4.3% | annexin V-positive cells proportion (Kasumi-1 cells [5]; 48 hours): 88.6% | proportion of sub-G1 cells (Kasumi-1 cells [6]): higher proportion of sub-G1 | induction of differentiation (CD11b, CD13, CD14, CD33, CD34, CD64) (Kasumi-1 cells [7]): did not induce differentiation | mitochondrial transmembrane potential (Kasumi-1 cells [1]; EriB 24 and 48 hours, time and dose dependent): decreased significantly | Bcl-2 protein and mRNA levels (Bcl-2): have decreased | Bcl-XL protein and mRNA levels (Bcl-XL): have decreased | Bax expression (Bax): have not changed significantly | base luciferase activity and TNF-α-induced NF-κB activity (NF-κB [8]): have been blocked | NF-κB activation (DNA binding, EMSA) (NF-κB [9]): can block NF-κB activation | TNF-α-induced P65 translocation into nucleus (NF-κB (P65)): significantly prevent | cell level of ROS compared with untreated cells (Kasumi-1 cells [2]; 0.5 μM EriB alone for 2 hours): about two | AML1-ETO fusion protein level (AML1-ETO fusion protein): AML1-ETO degradation | caspase-3 activation (caspase-3): activated | ERK1/2 phosphorylation level (ERK1/2): rapidly decreased | AP-1 luciferase activity increase (AP-1): about three | cell inhibition [10]: more than 60% | median survival time ([11]; EriB 1.25 mg/kg intraperitoneal for two weeks): 28 days | median survival time ([11]; EriB 2.5 mg/kg intraperitoneal for two weeks): 32 days | spleen size versus untreated mice ([11]; EriB intraperitoneal, 20 days): obviously smaller | tumor size versus control group (Kasumi-1 cells [12]): significantly reduce tumor size

COC(=O)CC[C@H](NC(=O)[C@H](CC(=O)OC)NC(=O)OCc1ccccc1)C(=O)N[C@H](C(=O)N[C@@H](CC(=O)OC)C(=O)CF)C(C)C [Z-DEVD-fmk, reference compound]
effect on rate of EriB-induced apoptosis (annexin V positive cell proportion) (Kasumi-1 cells [5]; 40 μM Z-DEVD-fmk pre-treatment one hour): only partially reduced
